According to US12612410B2 (CHILDREN'S HOSPITAL MEDICAL CENTER, priority 2020, dated 2026):
pKd: −log10 of the molar value.

Each compound was assayed against T1, FLT3 ITD, D835V (Homo sapiens, UniProt P36888, D835V, form not given) (assay: DiscoverX KINOMEscan competition binding, FLT3 ITD, D835V).
T1 construct: fused on or other part: DNA tag for qPCR detection (T7 phage fusion or DNA-tagged protein from HEK-293 cells)
T1 sequence (P36888 1-993 D835V): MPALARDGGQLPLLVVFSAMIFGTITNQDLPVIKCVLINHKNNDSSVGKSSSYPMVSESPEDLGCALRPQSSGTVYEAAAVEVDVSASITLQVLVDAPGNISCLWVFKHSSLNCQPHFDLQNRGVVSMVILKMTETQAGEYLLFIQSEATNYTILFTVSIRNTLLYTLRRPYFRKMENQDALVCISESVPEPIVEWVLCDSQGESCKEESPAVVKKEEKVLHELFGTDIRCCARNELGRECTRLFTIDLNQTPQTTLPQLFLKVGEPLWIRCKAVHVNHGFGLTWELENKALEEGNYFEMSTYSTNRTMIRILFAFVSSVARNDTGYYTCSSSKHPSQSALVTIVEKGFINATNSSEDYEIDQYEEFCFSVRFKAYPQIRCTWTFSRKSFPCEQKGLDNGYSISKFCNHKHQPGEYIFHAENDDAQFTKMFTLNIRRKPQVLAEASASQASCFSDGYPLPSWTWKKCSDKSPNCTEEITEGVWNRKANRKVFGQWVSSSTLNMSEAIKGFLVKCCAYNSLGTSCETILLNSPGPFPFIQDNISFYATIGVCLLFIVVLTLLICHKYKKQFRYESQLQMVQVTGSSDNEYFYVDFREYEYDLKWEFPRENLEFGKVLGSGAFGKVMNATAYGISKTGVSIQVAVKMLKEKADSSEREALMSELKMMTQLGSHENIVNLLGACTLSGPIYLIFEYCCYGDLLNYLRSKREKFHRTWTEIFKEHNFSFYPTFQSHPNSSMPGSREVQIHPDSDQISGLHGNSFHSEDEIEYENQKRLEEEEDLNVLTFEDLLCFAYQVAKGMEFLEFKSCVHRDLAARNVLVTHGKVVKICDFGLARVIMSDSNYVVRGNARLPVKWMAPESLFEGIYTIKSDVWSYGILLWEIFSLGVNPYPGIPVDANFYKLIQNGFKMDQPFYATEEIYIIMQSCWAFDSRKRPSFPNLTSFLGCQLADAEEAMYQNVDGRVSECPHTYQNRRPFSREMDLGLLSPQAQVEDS
Text: Kinase binding data were obtained for various exemplary compounds prepared according to Examples 1-24 using the DiscoverX KINOMVIEscan® active site-directed competition binding site-directed assay protocol described below. […] As a result, the data report thermodynamic interaction affinities (Kd values), rather than IC50 values that are dependent on ATP concentrations. The assay uses a DNA-tagged version of the protein kinase, and an immobilized ligand bound to a solid support. Compounds that directly or indirectly prevent kinase binding to the immobilized ligand reduce the amount of kinase captured on the solid support, which is detected using an ultra-sensitive qPCR method. Affinity constants reported from the assay have been reported to be independent of the immobilized ligand used that is coupled to the solid support (See supplemental information in Fabian, M. A. et. al., (2005) Nat. Biotechnol. 23, 329-336; Wodicka, L. M. et. al., (2010) Chem. Biol. 17, 1241-1249.)
Kinase-tagged T7 phage strains were prepared in an E. coli host derived from the BL21 strain. E. coli were grown to log-phase and infected with T7 phage and incubated with shaking at 32° C. until lysis. The lysates were centrifuged and filtered to remove cell debris. The remaining kinases were produced in HEK-293 cells and subsequently tagged with DNA for qPCR detection. Streptavidin-coated magnetic beads were treated with biotinylated small molecule ligands for 30 minutes at room temperature to generate affinity resins for kinase assays. The liganded beads were blocked with excess biotin and washed with blocking buffer (SeaBlock (Pierce), 1% BSA, 0.05% Tween 20, 1 mM DTT) to remove unbound ligand and to reduce non-specific binding. Binding reactions were assembled by combining kinases, liganded affinity beads, and test compounds in 1× binding buffer (20% SeaBlock, 0.17×PBS, 0.05% Tween 20, 6 mM DTT). Test compounds were prepared as 111× stocks in 100% DMSO. Kds were determined using an 11-point 3-fold compound dilution series with three DMSO control points. All compounds for Kd measurements are distributed by acoustic transfer (non-contact dispensing) in 100% DMSO. The compounds were then diluted directly into the assays such that the final concentration of DMSO was 0.9%. All reactions were performed in polypropylene 384-well plates. Each was a final volume of 0.02 mL. The assay plates were incubated at room temperature with shaking for 1 hour and the affinity beads were washed with wash buffer (1×PBS, 0.05% Tween 20). The beads were then re-suspended in elution buffer (1×PBS, 0.05% Tween 20, 0.5 μM nonbiotinylated affinity ligand) and incubated at room temperature with shaking for 30 minutes. The kinase concentration in the eluates was measured by qPCR.
Binding constants (Kds) were calculated with a standard dose-response curve using the Hill equation. The Hill Slope was set to −1. Curves were fitted using a non-linear least square fit with the Levenberg-Marquardt algorithm.

SMILES | pKd
FC(F)(F)C1(c2cn3c(-c4cccc(N[C@@H]5CCNC5)n4)cnc3cn2)CC1 [Compound 10, (R)-N-(pyrrolidin-3-yl)-6-(6-(1-(trifluoromethyl)cyclopropyl)imidazo[1,2-a]pyrazin-3-yl)pyridin-2-amine] | 10.96
FC(F)c1cn2c(-c3cccc(N[C@H]4CNCC[C@@H]4F)n3)cnc2cn1 [Compound 25, 6-(6-(difluoromethyl)imidazo[1,2-a]pyrazin-3-yl)-N-((3S,4S)-4-fluoropiperidin-3-yl)pyridin-2-amine] | 11.05
CC(C)(O)c1cn2c(-c3cccc(N[C@H]4CNCC[C@@H]4F)n3)cnc2cn1 [Compound 31, 2-(3-(6-(((3S,4S)-4-fluoropiperidin-3-yl)amino)pyridin-2-yl)imidazo[1,2-a]pyrazin-6-yl)propan-2-ol] | 10.36
FC(F)(F)COc1cn2c(-c3cccc(N[C@@H]4CCNC4)n3)cnc2cn1 [Compound 38, (R)-N-(pyrrolidin-3-yl)-6-(6-(2,2,2-trifluoroethoxy)imidazo[1,2-a]pyrazin-3-yl)pyridin-2-amine] | 10.59
Cn1cc(-c2cn3c(-c4cccc(N[C@H]5CNC[C@@H]5F)n4)cnc3cn2)cn1 [Compound 52, N-((3S,4S)-4-fluoropyrrolidin-3-yl)-6-(6-(1-methyl-1H-pyrazol-4-yl)imidazo[1,2-a]pyrazin-3-yl)pyridin-2-amine] | 11.52

Results, then the compound that gave them:

pKd | SMILES
11.52 | CC1(c2cn3c(-c4cccc(N[C@H]5CNC[C@@H]5F)n4)cnc3cn2)CC1 [Compound 1, N-((3S,4S)-4-fluoropyrrolidin-3-yl)-6-(6-(1-methylcyclopropyl)imidazo[1,2-a]pyrazin-3-yl)pyridin-2-amine]
11.40 | CC1(c2cn3c(-c4cccc(N[C@@H]5CCNC5)n4)cnc3cn2)CC1 [Compound 3, (R)-6-(6-(1-methylcyclopropyl)imidazo[1,2-a]pyrazin-3-yl)-N-(pyrrolidin-3-yl)pyridin-2-amine]
11.30 | CC1(c2cn3c(-c4cccc(N[C@H]5CNCC56CC6)n4)cnc3cn2)CC1 [Compound 5, (R)-N-(6-(6-(1-methylcyclopropyl)imidazo[1,2-a]pyrazin-3-yl)pyridin-2-yl)-5-azaspiro[2.4]heptan-7-amine]
11.22 | FC(F)c1cn2c(-c3cccc(N[C@H]4CNC[C@@H]4F)n3)cnc2cn1 [Compound 16, 6-(6-(difluoromethyl)imidazo[1,2-a]pyrazin-3-yl)-N-((3S,4S)-4-fluoropyrrolidin-3-yl)pyridin-2-amine]
9.85 | CC(C)(O)c1cn2c(-c3cccc(N[C@@H]4CCCNC4)n3)cnc2cn1 [Compound 30, (R)-2-(3-(6-(piperidin-3-ylamino)pyridin-2-yl)imidazo[1,2-a]pyrazin-6-yl)propan-2-ol]
11.52 | F[C@H]1CNC[C@@H]1Nc1cccc(-c2cnc3cnc(C4CC4)cn23)n1 [Compound 50, 6-(6-cyclopropylimidazo[1,2-a]pyrazin-3-yl)-N-((3S,4S)-4-fluoropyrrolidin-3-yl)pyridin-2-amine]
